Laboratory results taken from US6320051A, “Quinolones used as MRS inhibitors and bactericides” (SmithKline Beecham plc, priority 1998, dated 2001).
≈ marks a conversion by molar mass, not a printed value. Counter-ions that a name gives are not always drawn. Like-named read-outs stand apart in the source and are kept apart here.

Assays:
[1] = system: S. aureus, S. pneunmoniae, and E. faecalis; test: Antibacterial activity, standard MIC assay modified by inclusion of cyclodextrin; assay type: cell-based; settings: read-out: MIC against some strains of S. aureus, S. pneumoniae and E. faecalis
Method: (§1) Compounds of the present invention were assayed for antibacterial activity against a range of pathogenic organisms (strains of S aureus, S pneumoniae, E faecalis, H influenzae and M catarrhalis) in a standard MIC assay modified by the inclusion of cyclodextrin, to assist with solubility.

M. Catarrhalis = test: as above; assay type: cell-based; settings: Moraxella catarrhalis; MIC assay with cyclodextrin; range over the listed Examples; read-out: MIC against M. Catarrhalis
Method: as §1

H. influenzae = test: as above; assay type: cell-based; settings: MIC assay with cyclodextrin
Method: as §1

[2] = system: isoleucyl t-RNA synthetase; settings: background of the invention; cited from earlier work
[3] = some strains of the organisms, MIC assay with cyclodextrin

Cl.O=c1cc(NCCCNCc2ccc(Cl)c(Cl)c2)[nH]c2ccccc12 [Example 18, 2-[3-(3,4-Dichlorobenzylamino)prop-1-ylamino]-1H-quinolin-4-one hydrochloride]
MIC [1]: < 1 µg/mL
MIC (M. Catarrhalis): 2 to 64 µg/mL

O=c1cc(NCCCNCc2cc(I)cc(I)c2)[nH]c2ccccc12 [Example 36, 2-[3-(3,5-Diiodobenzylamino)prop-1-ylamino]-1H-quinolin-4-one]
MIC [1, 3]: < 1 µg/mL
MIC (M. Catarrhalis): 2 to 64 µg/mL (≈ 3.58 to 114 µM)

O=c1cc(NCCCNCc2cc(Br)c(Br)s2)[nH]c2ccccc12 [Example 37]
MIC [1, 3]: < 1 µg/mL
MIC (M. Catarrhalis): 2 to 64 µg/mL (≈ 4.24 to 136 µM)

O=c1cc(NCCCNCc2ccc(Cl)c(C(F)(F)F)c2)[nH]c2ccccc12 [Example 38, 2-[3-(4-Chloro-3-trifluoromethylbenzylamino)prop-1-ylamino]-1H-quinolin-4-one]
MIC [1, 3]: < 1 µg/mL
MIC (M. Catarrhalis): 2 to 64 µg/mL (≈ 4.88 to 156 µM)

O=c1cc(NCCCNCc2cc(Cl)cc(Cl)c2OCc2ccccc2)[nH]c2ccccc12 [Example 39, 2-[3-(2-Benzyloxy-3,5-dichlorobenzylamino)prop-1-ylamino]-1H-quinolin-4-one]
MIC [1, 3]: < 1 µg/mL
MIC (M. Catarrhalis): 2 to 64 µg/mL (≈ 4.15 to 133 µM)

O=c1cc(NCCCNCc2cc(Br)cc(Br)c2)[nH]c2ccccc12 [Example 40, 2-[3-(3,5-Dibromobenzylamino)prop-1-ylamino]-1H-quinolin-4-one]
MIC [1, 3]: < 1 µg/mL
MIC (M. Catarrhalis): 2 to 64 µg/mL (≈ 4.3 to 138 µM)

Cc1c(Br)cc(CNCCCNc2cc(=O)c3ccccc3[nH]2)cc1Br [Example 41, 2-[3-(3,5-Dibromo-4-methylbenzylamino)prop-1-ylamino]-1H-quinolin-4-one]
MIC [1, 3]: < 1 µg/mL
MIC (M. Catarrhalis): 2 to 64 µg/mL (≈ 4.17 to 134 µM)

O=c1cc(NCCCNCc2cc(Br)c(Br)c(Br)c2)[nH]c2ccccc12 [Example 42, 2-[3-(3,4,5-Tribromobenzylamino)prop-1-ylamino]-1H-quinolin-4-one]
MIC [1, 3]: < 1 µg/mL
MIC (M. Catarrhalis): 2 to 64 µg/mL (≈ 3.68 to 118 µM)

O=c1cc(NCCCNCc2cc(Br)cc(I)c2)[nH]c2ccccc12 [Example 43, 2-[3-(3-Bromo-5-iodobenzylamino)prop-1-ylamino]-1H-quinolin-4-one]
MIC [1, 3]: < 1 µg/mL
MIC (M. Catarrhalis): 2 to 64 µg/mL (≈ 3.9 to 125 µM)

O=c1cc(NCCCNCc2cc(Cl)cc(Cl)c2Cl)[nH]c2ccccc12 [Example 45, 2-[3-(2,3,5-Trichliorobenzylamino)prop-1-ylamino]-1H-quinolin-4-one dihydrochloride]
MIC [1, 3]: < 1 µg/mL
MIC (M. Catarrhalis): 2 to 64 µg/mL

CCOc1c(Br)cc(Br)cc1CNCCCNc1cc(=O)c2ccccc2[nH]1.Cl.Cl [Example 46, 2-[3-(3,5-Dibromo-2-ethoxybenzylamino)prop-1-ylamino]-1H-quinolin-4-one dihydrochloride]
MIC [1, 3]: < 1 µg/mL
MIC (M. Catarrhalis): 2 to 64 µg/mL

O=c1cc(NCCCNC2CCc3c(Cl)sc(Cl)c32)[nH]c2ccccc12 (stereo not shown) [Example 47, 2-[3-(1,3-Dichloro-5,6-dihydro-4H-cyclopenta[c]thiophen-4-ylamino]prop-1-ylamino}-1H-quinolin-4-one]
MIC [1, 3]: < 1 µg/mL
MIC (M. Catarrhalis): 2 to 64 µg/mL (≈ 4.9 to 157 µM)

O=c1cc(NCCCNC2CCCc3c(Cl)cc(Cl)cc32)[nH]c2ccccc12 (stereo not shown) [Example 51, 2-[3-(5,7-Dichloro-1,2,3,4-tetrahydronaphth-1-ylamino)prop-1-ylamino]-1H-quinolin-4-one]
MIC [1]: < 1 µg/mL
MIC (M. Catarrhalis): 2 to 64 µg/mL (≈ 4.8 to 154 µM)

O=c1cc(NCCCNC2CCCc3c2cc(Cl)c(Cl)c3Cl)[nH]c2ccccc12 (stereo not shown) [Example 53, 2-[3-(5,6,7-Trichloro-1,2,3,4-tetrahydronaphth-1-ylamino)prop-1-ylamino]-1H-quinolin-4-one]
MIC [1]: < 1 µg/mL
MIC (M. Catarrhalis): 2 to 64 µg/mL (≈ 4.44 to 142 µM)

O=c1cc(NCCCNC2CCc3c(Cl)cc(Cl)cc32)[nH]c2ccccc12 (stereo not shown) [Example 55, 2-[3-(4,6-Dichloroindan-1-ylamino)prop-1-ylamino]-1H-quinolin-4-one]
MIC [1]: < 1 µg/mL
MIC (M. Catarrhalis): 2 to 64 µg/mL (≈ 4.97 to 159 µM)

O=c1cc(NCC2CCCC2NCc2ccc(Cl)c(Cl)c2)[nH]c2ccccc12 (stereo not shown) [Example 60, 2-{[2-(3,4-Dichlorobenzylamino)cyclopentyl]methylamino}-1H-quinolin-4-one]
MIC [1]: < 1 µg/mL
MIC (M. Catarrhalis): 2 to 64 µg/mL (≈ 4.8 to 154 µM)

O=c1cc(NCCCNC2CCCc3c2[nH]c2ccccc32)[nH]c2ccccc12 (stereo not shown) [Example 64, 2-[3-(2,3,4,9-Tetrahydro-1H-carbazol-1-ylamino)prop-1-ylamino]-1H-quinolin-4-one]
antibacterial activity against H. influenzae (H. influenzae): active

CC(C)(C)OC(=O)COc1c(Cl)cc(Cl)cc1CNCCCNc1cc(=O)c2ccccc2[nH]1 [Example 67, 2-[3-(2-tert-Butoxycarbonylmethoxy-3,5-dichlorobenzylamino)prop-1-ylamino]-1H-quinolin-4-one]
MIC [1, 3]: < 1 µg/mL
MIC (M. Catarrhalis): 2 to 64 µg/mL (≈ 3.95 to 126 µM)

C=CCOc1c(Cl)cc(Cl)cc1CNCCCNc1cc(=O)c2ccccc2[nH]1 [Example 68, 2-[3-(2-Allyloxy-3,5-dichlorobenzylamino)prop-1-ylamino]-1H-quinolin-4-one]
MIC [1, 3]: < 1 µg/mL
MIC (M. Catarrhalis): 2 to 64 µg/mL (≈ 4.63 to 148 µM)

O=c1cc(NCCCNCc2cc(Cl)cc(Cl)c2OCCc2ccccc2)[nH]c2ccccc12 [Example 69, 2-[3-(3,5-Dichloro-2-phenethoxybenzylamino)propylamino]-1H-quinolin-4-one]
MIC [1, 3]: < 1 µg/mL
MIC (M. Catarrhalis): 2 to 64 µg/mL (≈ 4.03 to 129 µM)

O=c1cc(NC[C@H]2CCC[C@@H]2NCc2ccc(Cl)c(Cl)c2)[nH]c2ccccc12 [Example 71, 2-{[(1R,2S)-2-(3,4-Dichlorobenzylamino)cyclopentylmethyl]amino}-1H-quinolin-4-one]
MIC [1]: < 1 µg/mL
MIC (M. Catarrhalis): 2 to 64 µg/mL (≈ 4.8 to 154 µM)

O=c1cc(NC[C@H]2CCC[C@@H]2NCc2cc(Br)cc(Br)c2)[nH]c2ccccc12 [Example 73, 2-{[(1R,2S)-2-(3,5-Dibromobenzylamino)cyclopentyl-methyl]amino}-1H-quinolin-4-one]
MIC [1, 3]: < 1 µg/mL
MIC (M. Catarrhalis): 2 to 64 µg/mL (≈ 3.96 to 127 µM)

O=c1cc(NC[C@H]2CCC[C@@H]2NCc2cc(Br)c(Br)s2)[nH]c2ccccc12 [Example 74, 2-{[(1R,2S)-2-(4,5-Dibromo-2-thiophenemethylamino)-cyclopentylmethyl]amino}-1H-quinolin-4-one]
MIC [1, 3]: < 1 µg/mL
MIC (M. Catarrhalis): 2 to 64 µg/mL (≈ 3.91 to 125 µM)

CCOc1c(Br)cc(Br)cc1CN[C@H]1CCC[C@@H]1CNc1cc(=O)c2ccccc2[nH]1 [Example 75, 2-{[(1R,2S)-2-(3,5-Dibromo-2-ethoxybenzylamino)cyclopentyl-methyl]amino}-1H-quinolin-4-one]
MIC [1, 3]: < 1 µg/mL
MIC (M. Catarrhalis): 2 to 64 µg/mL (≈ 3.64 to 117 µM)

O=c1cc(NCCCNCc2cc3c(Cl)cc(Cl)cc3[nH]2)[nH]c2ccccc12 [Example 76, 2-[3-(4,6-Dichloroindol-2-ylmethylamino)prop-1-ylamino]-1H-quinolin-4-one]
MIC [1, 3]: < 1 µg/mL
MIC (M. Catarrhalis): 2 to 64 µg/mL (≈ 4.82 to 154 µM)

Nc1c(Br)cc(Br)cc1CNCCCNc1cc(=O)c2ccccc2[nH]1 [Example 77, 2-[3-(2-Amino-3,5-dibromobenzylamino)prop-1-ylamino]-1H-quinolin-4-one]
MIC [1, 3]: < 1 µg/mL
MIC (M. Catarrhalis): 2 to 64 µg/mL (≈ 4.16 to 133 µM)

C/C(=C\C(=O)OCCCCCCCCC(=O)O)C[C@@H]1OC[C@H](C[C@@H]2O[C@H]2[C@@H](C)[C@H](C)O)[C@@H](O)[C@H]1O [Mupirocin]
inhibition of isoleucyl t-RNA synthetase [2]: inhibitor
